The record followed here is PubChem BioAssay (NCI).

Structures are written as SMILES.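 1) Cells in 96-well plates. 2) Compound, 48 h, 5 concentrations. 3) Linear interpolation between surrounding doses. 4) Unreached endpoint = highest concentration. TGI denotes the concentration required for complete inhibition of growth.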 Some results are limits rather than exact numbers.

Common to all, as to assay: DTP human tumour cell line panel, 48 h
In experiment [1] the test system is U251 CNS.
In experiment [2] the test system is SK-MEL-5 melanoma.
Experiment [3] concerns HCT-15 colon.
Experiment [4] relates to MALME-3M melanoma.
Experiment [5] relates to ACHN renal.
The subject of experiment [6] is HCT-116 colon.
Experiment [7] concerns CCRF-CEM leukemia.
Experiment [8] concerns HT29 colon.
Experiment [9] relates to MOLT-4 leukemia.
Experiment [10] deals with KM12 colon.
Experiment [11] relates to SN12C renal.
Experiment [12] deals with DLD-1 colon.
The subject of experiment [13] is SF-268 CNS.
The subject of experiment [14] is HCC-2998 colon.
Experiment [15] concerns SK-OV-3 ovarian.
The subject of experiment [16] is OVCAR-4 ovarian.
The test system of experiment [17] is MDA-MB-231 breast.
The subject of experiment [18] is HS 578T breast.
Experiment [19] deals with MDA-N.
The subject of experiment [20] is DU-145 prostate.

What is called TGI is the concentration giving total growth inhibition. `COc1c(C)c2c(c3c1c(=O)c1ccccc1n3C)C=CC(C)(C)O2`: the total growth inhibition concentration (TGI) in [1] was 53.8 µM; in experiment [2], 31.1 µM; in experiment [3], more than 100 µM; in [4], 56.7 µM; in experiment [5] it was 56.3 µM; in experiment [6] it was 44.8 µM. In addition, the concentration for total growth inhibition (TGI) in [7] is 83.9 µM; in [8], 81.5 µM; in experiment [9], 67.8 µM; in experiment [10] it was 60.9 µM; in experiment [11], more than 100 µM; in experiment [12], more than 100 µM. Further, the TGI in experiment [13] is 91.4 µM; in experiment [14], 95.6 µM; in experiment [15], 43.1 µM.

Consider `CC(C)C1C(=O)NC(CO)Cc2c[nH]c3c(C(c4c[nH]c5ccccc45)C(O)CO)ccc(c23)N1C` (stereo unspecified), for which the total growth inhibition concentration (TGI) in [2], in [16], in experiment [5], in experiment [6], in [7] and in [8] was more than 100 µM throughout. Further, the TGI is more than 100 µM in experiment [9]; more than 100 µM in [10]; more than 100 µM in [11]; more than 100 µM in [12]; more than 100 µM in experiment [13]; 18.5 µM in [14]. The compound also had a TGI in experiment [15] of more than 100 µM.

Consider `O=C(/C=C/c1ccc(O)c(O)c1)OC1C[C@@](O)(C(=O)O)C[C@@H](O)[C@H]1OC(=O)/C=C/c1ccc(O)c(O)c1` (stereo partly specified), for which the TGI in experiment [1], in [2], in experiment [3], in experiment [16], in [4] and in [5] was more than 100 µM throughout. The total growth inhibition concentration (TGI) in [6], in [7], in experiment [8], in [9], in experiment [10] and in experiment [12] was more than 100 µM each time. In addition, the TGI in experiment [13], in experiment [14] and in experiment [15] was more than 100 µM in each case.

On to `O=c1cc(-c2ccccc2)oc2cc(OCC(O)COc3ccc4c(=O)cc(-c5ccccc5)oc4c3)ccc12`, for which the TGI in experiment [1] was 63.1 µM; in experiment [2], more than 100 µM; in experiment [3] it was more than 100 µM; in [4] it was more than 100 µM; in [6], more than 100 µM; in experiment [7], more than 100 µM. For the same compound, the concentration for total growth inhibition (TGI) is more than 100 µM in experiment [8]; more than 100 µM in experiment [9]; more than 100 µM in experiment [10]; more than 100 µM in experiment [12]; 90.3 µM in [13]; 76.7 µM in [15].

As for `CCOC(=O)C1(C#N)C(c2ccccc2)CC(O)(c2ccc([N+](=O)[O-])cc2)C(C(=O)c2ccc([N+](=O)[O-])cc2)C1c1ccccc1` (stereo unspecified), the total growth inhibition concentration (TGI) in [1], in experiment [3], in experiment [16], in [4], in experiment [5] and in experiment [6] was more than 100 µM throughout. For the same compound, the concentration for total growth inhibition (TGI) in [7], in experiment [8], in experiment [9], in experiment [10], in experiment [11] and in experiment [12] was more than 100 µM in each case. Moreover, the TGI in experiment [13], in experiment [14] and in experiment [15] was more than 100 µM throughout.

Consider `Cc1nn2c(=O)c([N+](=O)[O-])c(/C=C/c3ccco3)nc2s1`, for which the concentration for total growth inhibition (TGI) in experiment [1] is more than 100 µM; in [2], 90.1 µM; in [3], more than 100 µM; in experiment [16], more than 100 µM; in experiment [17] it was more than 100 µM; in [4] it was more than 100 µM. Besides, the TGI in experiment [5], in experiment [6], in experiment [7], in experiment [8], in experiment [9] and in experiment [10] was more than 100 µM each time. Besides, the TGI in [11] is more than 100 µM; in [18] it was 89.1 µM; in experiment [19], 76.5 µM; in experiment [13], more than 100 µM; in experiment [14], more than 100 µM; in [15], more than 100 µM. Besides, the total growth inhibition concentration (TGI) in experiment [20] is more than 100 µM.

As to `COc1cccc(C(=O)Nc2c3ccccc3nc3ccccc23)c1OC`, the TGI in experiment [1], in experiment [2], in [3], in experiment [16], in [17] and in experiment [4] was more than 100 µM each time. In addition, the TGI in experiment [5], in experiment [6], in experiment [7], in [8], in [9] and in [10] was more than 100 µM throughout. Also, the TGI in experiment [11], in experiment [18], in [19], in experiment [13], in experiment [14] and in experiment [15] was more than 100 µM each time. The compound further came in with a concentration for total growth inhibition (TGI) in experiment [20] of more than 100 µM.

Consider `[O-]c1c[n+](CCCC[n+]2cc([O-])on2)no1`, for which the concentration for total growth inhibition (TGI) in [1], in experiment [2], in [3], in experiment [16], in experiment [17] and in experiment [4] was more than 100 µM throughout. Further, the TGI in experiment [5], in [6], in [7], in experiment [8], in [9] and in experiment [10] was more than 100 µM each time. Moreover, the concentration for total growth inhibition (TGI) in experiment [11], in [18], in experiment [19], in experiment [13], in experiment [14] and in experiment [15] was more than 100 µM in each case. For the same compound, the total growth inhibition concentration (TGI) in experiment [20] was more than 100 µM.

For the compound `COc1ccc2oc(=Nc3ccccc3)c(C(N)=O)cc2c1`, the concentration for total growth inhibition (TGI) in experiment [1], in [2], in [3], in experiment [16], in experiment [17] and in [4] was more than 100 µM in each case. Besides, the total growth inhibition concentration (TGI) is 42 µM in [5]; more than 100 µM in experiment [6]; more than 100 µM in [7]; more than 100 µM in experiment [8]; more than 100 µM in experiment [9]; more than 100 µM in experiment [10]. Further, the total growth inhibition concentration (TGI) in experiment [11] was more than 100 µM; in experiment [18], more than 70.1 µM; in experiment [19] it was more than 100 µM; in experiment [13] it was more than 100 µM; in experiment [14] it was more than 100 µM; in [15] it was more than 70.2 µM. The same compound came in with a total growth inhibition concentration (TGI) in [20] of more than 100 µM.
